Patent US20120309811A1, “P-GLYCOPROTEIN-SPECIFIC NON-COMPETITIVE PEPTIDE AND PEPTIDOMIMETIC MODULATORS” (UNIVERSITE CLAUDE BERNARD - LYON 1, priority 2009, published 2012)
Square brackets hold non-standard residues; d marks the D form. Peptide text beside a SMILES is read from it. * marks the point of attachment. Hyp = O=C(O)[C@@H]1C[C@@H](O)CN1; Cbz = O=C(OCc1ccccc1)*; Boc = CC(C)(C)OC(=O)*; OBn = c1ccc(CO*)cc1; Bn = c1ccc(C*)cc1; OtBu = CC(C)(C)O*

Tests used:
BCRP = target: T1, BCRP (Homo sapiens, UniProt Q9UNQ0); assay: Flow cytometry, inhibition of mitoxantrone efflux in HEK-293 cells transfected with BCRP; assay type: cell-based; details: 10 μM compound
T1 construct: expressed in transfected cells; host or cells: HEK-293 (ATCC CRL-1573), pcDNA3.1 expression vector (Invitrogen)
T1 sequence (Q9UNQ0 1-655): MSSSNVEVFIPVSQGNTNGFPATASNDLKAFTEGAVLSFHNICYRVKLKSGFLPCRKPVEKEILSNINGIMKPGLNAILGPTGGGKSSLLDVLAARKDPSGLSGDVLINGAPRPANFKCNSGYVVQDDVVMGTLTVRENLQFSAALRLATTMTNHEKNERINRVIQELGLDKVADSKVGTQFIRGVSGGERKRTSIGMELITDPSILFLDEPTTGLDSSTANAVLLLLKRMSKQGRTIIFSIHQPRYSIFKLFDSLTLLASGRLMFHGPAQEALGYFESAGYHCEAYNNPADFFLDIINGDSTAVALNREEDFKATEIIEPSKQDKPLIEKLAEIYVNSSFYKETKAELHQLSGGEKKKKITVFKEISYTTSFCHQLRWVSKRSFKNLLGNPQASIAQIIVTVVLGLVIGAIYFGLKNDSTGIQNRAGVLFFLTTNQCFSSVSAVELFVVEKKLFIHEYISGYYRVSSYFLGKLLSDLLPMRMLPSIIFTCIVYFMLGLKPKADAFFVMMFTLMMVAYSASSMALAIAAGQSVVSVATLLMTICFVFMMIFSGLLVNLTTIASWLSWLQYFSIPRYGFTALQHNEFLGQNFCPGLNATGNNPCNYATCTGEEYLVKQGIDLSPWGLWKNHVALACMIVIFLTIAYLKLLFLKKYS
Source text: (§1) The HEK-293 human fibroblast line (ATCC cell collection CRL-1573) is transfected with either BCRP (Robey R. W. et al. 2003, Br. J. Cancer 89(10) 1971-1978, [32]) or ABCC1, cloned into the pcDNA3.1 expression vector (Invitrogen), or with the empty pcDNA3.1 vector. The NIH3T3 cell line (ATCC CRL-1658) was stably transfected with pHaMDR1/A (Cardarelli et al. 1995 Cancer Res 55 1086-1091, [33]), which is a retroviral vector that expresses the wild-type MDR1 protein. The BHK-21 cell line (ATCC CCL-10) was transfected with MRP1 cloned into the pcDNA3.1 expression vector, or the empty pcDNA3.1 vector. The cells are maintained in culture in DMEM glutamax II (Invitrogen) supplemented with 10% of fetal bovine serum and 1% of penicillin/streptomycin. The data are processed with Sigmaplot V11 (http://www.systat.com/), and the equation for mathematical adjustment of the experimental data for calculating the IC50 values: f=a×(1−exp(−b×x)) (a=slope, b=intercept on the y-axis).
(§2) The cells expressing P-gp, BCRP and MRP, and their corresponding controls, are placed in the presence of 10 and 2 μM of mitoxantrone for the first two transporters and of 1 μM of daunorubicin for the 3rd. Substrate accumulation is carried out for 30 minutes at 37° C. in the presence or absence of varied concentrations of the molecules tested, at a final DMSO (dimethyl sulfoxide) concentration of 0.5%. After washing with PBS (phosphate buffered saline), the cells are incubated in medium containing the same concentrations of molecules tested as previously, for 1 h at 37° C. The intracellular fluorescence of mitoxantrone and daunorubicin anticancer agent is measured with the FACscan flow cytometer (Becton Dickinson, Mountain, View, Calif.). The drugs are excited at 488 nm. The emission of mitoxantrone is measured at 650 nm, whereas the emission of daunorubicin is measured at 530 nm. The effectiveness of the molecules tested is expressed by equation 1: % effectiveness=100×(FA−FBG)/(FC−FBG), where FA corresponds to the intracellular level of substrate measured in the cells overexpressing ABCG2 (corresponding to the lowest level of fluorescence in the absence of inhibitor), FC corresponds to the fluorescence in the control cells transfected with the empty vector (and therefore to the maximum accumulation of substrate in the cells) and FBG corresponds to the fluorescence measured in the absence of substrate and in the presence of inhibitor.
(§3) The inhibitory effect of the compounds is quantified by measuring, by flow cytometry, the efflux of an anticancer drug transported by the pump under consideration, i.e. mitoxantrone for P-gp and BCRP and daunorubicin for MRP1. It is compared with that of the reference product, reversin 121. The products are tested at 10 μM, then at 2 μM for those which block at least 80% of the efflux of mitoxantrone, and for some, a more complete concentration range is tested so as to establish the concentration value producing 50% inhibition, IC50, as indicated in FIG. 3.

P-gp = target: T2, P-gp (Homo sapiens, UniProt P08183); assay: Flow cytometry, inhibition of mitoxantrone efflux in NIH3T3 cells expressing P-gp; assay type: cell-based; details: for % pump inhibition at 10 μM of compound, P-gp / inhibition at 1 h, 10 µM: 10 μM compound; for % pump inhibition at 10 μM of compound, P-gp / inhibition at 1 h, 10 µM / IC50: mitoxantrone efflux; for inhibition at 1 h, 10 µM: human, probe mitoxantrone, read-out: % pump inhibition at 10 μM of compound, P-gp; for IC50: mathematical adjustment of experimental points
T2 construct: expressed in transfected cells; host or cells: NIH3T3 (ATCC CRL-1658), stably transfected with retroviral vector pHaMDR1/A
Source text: as §1, §2, §3

ABCG2 = target: T3, ABCG2 (Homo sapiens, UniProt Q9UNQ0); parameters: key: the inhibitor is active (+); it is inactive (−); the effect is unknown (?); details: cited from earlier work
T3 sequence (Q9UNQ0 1-655): T1 sequence (Q9UNQ0 1-655)

ABCC1 = ABCC1 (Homo sapiens, UniProt P33527); details: cited from earlier work
ABCB1 = ABCB1 (Homo sapiens, UniProt P08183); parameters: key: the inhibitor is active (+); it is inactive (−); the effect is unknown (?); details: cited from earlier work
[1] = phase III; cited from earlier work
MRP1 = target: T4, MRP1 (Homo sapiens, UniProt P33527); assay: Flow cytometry, inhibition of daunorubicin efflux in cells transfected with MRP1; assay type: cell-based; details: 10 μM compound
T4 construct: expressed in transfected cells; host or cells: BHK-21 (ATCC CCL-10) with MRP1 in pcDNA3.1; HEK-293 transfected with ABCC1 in pcDNA3.1 is also described
Source text: as §1, §2
The inhibitory effect of the compounds is quantified by measuring, by flow cytometry, the efflux of an anticancer drug transported by the pump under consideration, i.e. mitoxantrone for P-gp and BCRP and daunorubicin for MRP1. It is compared with that of the reference product, reversin 121. […]

[2] = tested on: NIH3T3 cells expressing or not expressing P-gp; assay: Cytotoxicity test (MTT), cell survival after 72 h; assay type: cell-based
Description: The cells are seeded in a proportion of 10 000 per well in 96-well plates and incubated for 24 hours at 37° C. under 5% CO2. Varied concentrations of compounds Nos 2, 3, 4, 5 and 6, up to 20 times the IC50, are then added. The cytotoxicity is evaluated colorinnetrically with 3-(4,5-dimethylthiazol-2-yl)-2,5-diphenyltetrazolium bromide (MTT).
Increasing concentrations of compound No. 4 or No. 6 are applied to NIH3T3 cells expressing or not expressing P-gp. The cell survival is measured after 72 h and is expressed as a percentage. At 10 times the half-maximum-effect concentration, these two compounds are not toxic. Above this, the toxicity of compound No. 4 remains negligible, while that of compound No. 6 remains limited.

Chain of ABCC1 (P33527 whole entry): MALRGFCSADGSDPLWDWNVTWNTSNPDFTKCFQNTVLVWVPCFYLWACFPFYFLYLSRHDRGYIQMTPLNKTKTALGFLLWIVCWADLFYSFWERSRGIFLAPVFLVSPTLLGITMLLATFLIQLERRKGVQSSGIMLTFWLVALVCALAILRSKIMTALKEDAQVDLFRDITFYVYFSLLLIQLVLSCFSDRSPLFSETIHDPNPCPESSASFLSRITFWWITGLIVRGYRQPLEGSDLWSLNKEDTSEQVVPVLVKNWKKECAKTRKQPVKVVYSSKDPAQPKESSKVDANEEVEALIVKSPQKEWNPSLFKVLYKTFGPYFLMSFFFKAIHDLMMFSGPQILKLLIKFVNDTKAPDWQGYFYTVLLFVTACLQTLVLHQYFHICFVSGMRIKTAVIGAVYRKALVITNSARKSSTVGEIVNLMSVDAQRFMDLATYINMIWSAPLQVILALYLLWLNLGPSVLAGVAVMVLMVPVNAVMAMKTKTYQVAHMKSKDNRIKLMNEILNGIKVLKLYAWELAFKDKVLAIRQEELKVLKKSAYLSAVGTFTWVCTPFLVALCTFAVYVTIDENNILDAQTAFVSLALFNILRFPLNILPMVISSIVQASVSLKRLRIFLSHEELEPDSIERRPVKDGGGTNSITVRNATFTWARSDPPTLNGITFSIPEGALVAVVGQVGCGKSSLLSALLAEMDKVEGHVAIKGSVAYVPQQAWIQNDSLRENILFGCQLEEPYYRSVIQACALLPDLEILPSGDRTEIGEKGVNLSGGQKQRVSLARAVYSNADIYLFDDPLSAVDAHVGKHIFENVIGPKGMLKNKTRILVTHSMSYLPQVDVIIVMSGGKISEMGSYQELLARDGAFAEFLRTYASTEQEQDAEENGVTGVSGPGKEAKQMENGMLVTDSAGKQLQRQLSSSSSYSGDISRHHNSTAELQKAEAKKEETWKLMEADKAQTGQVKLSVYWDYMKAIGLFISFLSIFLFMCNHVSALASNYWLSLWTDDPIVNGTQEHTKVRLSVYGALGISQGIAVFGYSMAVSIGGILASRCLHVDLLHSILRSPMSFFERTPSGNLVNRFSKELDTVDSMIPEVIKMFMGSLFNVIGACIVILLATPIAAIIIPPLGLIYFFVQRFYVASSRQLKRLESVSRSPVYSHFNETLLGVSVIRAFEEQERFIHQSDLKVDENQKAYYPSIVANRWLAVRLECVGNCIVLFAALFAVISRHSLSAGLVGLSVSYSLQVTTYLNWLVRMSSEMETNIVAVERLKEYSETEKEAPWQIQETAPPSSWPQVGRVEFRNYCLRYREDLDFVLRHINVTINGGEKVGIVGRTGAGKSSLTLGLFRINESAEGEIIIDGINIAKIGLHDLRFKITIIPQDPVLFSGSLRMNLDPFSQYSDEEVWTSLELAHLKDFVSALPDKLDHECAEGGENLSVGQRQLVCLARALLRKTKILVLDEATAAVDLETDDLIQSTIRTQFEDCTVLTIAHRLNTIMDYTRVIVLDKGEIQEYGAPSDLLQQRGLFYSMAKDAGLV
T4 sequence (P33527 whole entry): as above
T2 sequence (P08183 whole entry): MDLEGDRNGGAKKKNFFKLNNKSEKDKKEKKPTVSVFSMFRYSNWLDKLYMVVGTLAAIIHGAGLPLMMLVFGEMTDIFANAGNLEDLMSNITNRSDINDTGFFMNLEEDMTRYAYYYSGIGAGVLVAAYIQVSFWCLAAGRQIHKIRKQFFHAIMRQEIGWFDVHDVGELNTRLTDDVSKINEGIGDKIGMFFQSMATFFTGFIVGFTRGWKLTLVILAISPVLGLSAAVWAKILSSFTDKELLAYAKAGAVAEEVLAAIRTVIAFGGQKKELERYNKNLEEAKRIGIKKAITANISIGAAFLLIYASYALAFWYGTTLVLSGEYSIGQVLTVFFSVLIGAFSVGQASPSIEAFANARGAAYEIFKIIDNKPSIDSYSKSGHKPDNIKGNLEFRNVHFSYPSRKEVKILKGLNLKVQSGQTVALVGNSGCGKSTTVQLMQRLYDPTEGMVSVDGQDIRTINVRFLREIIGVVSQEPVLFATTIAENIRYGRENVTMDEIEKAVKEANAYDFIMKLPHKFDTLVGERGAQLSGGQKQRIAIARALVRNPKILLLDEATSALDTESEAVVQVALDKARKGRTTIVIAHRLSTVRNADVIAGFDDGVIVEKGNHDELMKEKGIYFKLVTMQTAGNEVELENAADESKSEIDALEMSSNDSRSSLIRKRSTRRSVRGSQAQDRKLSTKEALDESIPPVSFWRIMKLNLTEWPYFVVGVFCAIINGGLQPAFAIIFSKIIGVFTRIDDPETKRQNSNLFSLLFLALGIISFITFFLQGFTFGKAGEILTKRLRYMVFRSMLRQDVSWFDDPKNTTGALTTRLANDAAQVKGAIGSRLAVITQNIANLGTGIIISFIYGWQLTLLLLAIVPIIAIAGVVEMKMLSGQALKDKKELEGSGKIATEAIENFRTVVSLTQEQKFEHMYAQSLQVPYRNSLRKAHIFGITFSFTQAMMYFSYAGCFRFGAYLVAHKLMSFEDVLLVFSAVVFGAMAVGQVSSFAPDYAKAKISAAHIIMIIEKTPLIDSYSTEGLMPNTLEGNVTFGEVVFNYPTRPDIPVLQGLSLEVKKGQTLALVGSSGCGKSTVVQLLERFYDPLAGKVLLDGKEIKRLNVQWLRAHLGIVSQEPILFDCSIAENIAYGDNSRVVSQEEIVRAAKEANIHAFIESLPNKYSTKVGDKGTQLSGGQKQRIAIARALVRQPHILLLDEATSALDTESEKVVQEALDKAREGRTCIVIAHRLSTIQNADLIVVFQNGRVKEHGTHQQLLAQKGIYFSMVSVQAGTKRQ
Chain of ABCB1 (P08183 whole entry): as above

Structure (SMILES)	activity of MDR inhibitor on ABCG2 (ABCG2)	activity of MDR inhibitor on ABCC1 (ABCC1)	activity of MDR inhibitor on ABCB1 (ABCB1)	IC50 (P-gp) [nM]	also measured
CC(C)(C)OC(=O)[C@H](CCCCNC(=O)OCc1ccccc1)NC(=O)[C@@H]1C[C@@H](OC(=O)Cc2ccccc2)CN1C(=O)OC(C)(C)C (relative stereo) [No. 2, N^α-Boc-trans-L-4-Hyp(COBn)-L-Lys(Z)-OtBu]					% pump inhibition at 10 μM of compound, BCRP (BCRP): 10.0 ± 7.5%; % pump inhibition at 10 μM of compound, P-gp (P-gp): 68.0 ± 10.0%
COc1cc2c(cc1OC)CN(CCc1ccc(NC(=O)c3cccc4c(=O)c5cccc(OC)c5[nH]c34)cc1)CC2 [GF120918 (elacridar)]	+	−	+		
O[C@@H](COc1cccc2ncccc12)CN1CCN([C@@H]2c3ccccc3[C@@H]3[C@H](c4ccccc42)C3(F)F)CC1 [Ly335979 (zosuquidar)]	−	−			clinical outcome [1]: stopped in phase III because of their adverse effects
CC(C)(C)OC(=O)C(CCCCNC(=O)OCc1ccccc1)NC(=O)C1CC(OC(=O)C2CCCCC2)CN1C(=O)OC(C)(C)C [No. 3, N^α-Boc-trans-L-4-Hyp(COcHex)-L-Lys(Z)-OtBu]				1680 ± 280	% pump inhibition at 10 μM of compound, MRP1 (MRP1; 10 µM): non measurable; inhibition at 1 h, 10 µM (BCRP; human, HEK-293 cells transfected with BCRP, probe mitoxantrone, read-out: % pump inhibition at 10 μM of compound, BCRP): 11.2%; IC50 for P-gp compared with that of reversin 121 (P-gp): better than that of reversin; inhibition at 1 h, 10 µM (P-gp): 106 ± 13.4%
CC(C)(C)OC(=O)[C@H](CCCCNC(=O)OCc1ccccc1)NC(=O)[C@@H]1C[C@@H](OCc2ccccc2)CN1C(=O)OC(C)(C)C [No. 4, N^α-Boc-trans-L-4-Hyp(Bn)-L-Lys(Z)-OtBu] (Boc-[Hyp](Bn)-Lys(Cbz)-OtBu)				730 ± 200	% pump inhibition at 10 μM of compound, MRP1 (MRP1): low or zero; inhibition at 1 h, 10 µM (MRP1; human, probe daunorubicin, read-out: % pump inhibition at 10 μM of compound, MRP1): < 10%; cytotoxicity ([2]; above 10 times the half-maximum-effect concentration): negligible; cytotoxicity ([2]; at 10 times the half-maximum-effect concentration): not toxic; % pump inhibition at 10 μM of compound, BCRP (BCRP; 10 µM): 16.6 ± 3.4%; IC50 for P-gp compared with that of reversin 121 (P-gp): twice as good; % pump inhibition at 10 μM of compound, P-gp (P-gp): 99.7 ± 11.0%
CC(C)(C)OC(=O)[C@H](CCCCNC(=O)OCc1ccccc1)NC(=O)[C@@H]1C[C@@H](OCC2CCCCC2)CN1C(=O)OC(C)(C)C [No. 5, N^α-Boc-trans-L-4-Hyp(CH2cHex)-L-Lys(Z)-OtBu]				1130 ± 340	% pump inhibition at 10 μM of compound, BCRP (BCRP): 18.8 ± 10.0%; inhibition at 1 h, 10 µM (P-gp): 82.2 ± 10.8%
CCOC/C=C/c1ccc(-c2nc(-c3ccc(NC(C)C)cc3)c(-c3ccc(NC(C)C)cc3)[nH]2)cc1 [ONT-093 (ontogeny)]		−	+		
C/C=C/C[C@@H](C)C(=O)[C@H]1C(=O)N[C@@H](C(C)C)C(=O)N(C)CC(=O)N(C)[C@@H](CC(C)C)C(=O)N[C@@H](C(C)C)C(=O)N(C)[C@@H](CC(C)C)C(=O)N[C@@H](C)C(=O)N[C@H](C)C(=O)N(C)[C@@H](CC(C)C)C(=O)N(C)[C@@H](CC(C)C)C(=O)N(C)[C@@H](C(C)C)C(=O)N1C [PSC833 (valspodar)]	−		+		
COC(=O)c1cnc2n1CCc1ccccc1C2=C1CCN(CCc2ccc(OCc3ccc4ccccc4n3)cc2)CC1 [R101933 (laniquidar)]			+		
CC(C)(C)OC(=O)N[C@@H](CC(=O)OCc1ccccc1)C(=O)N[C@@H](CCCCNC(=O)OCc1ccccc1)C(=O)OC(C)(C)C [Reversin 121, reference compound] (Boc-Asp(OBn)-Lys(Cbz)-OtBu)				1410 ± 340	% pump inhibition at 10 μM of compound, BCRP (BCRP): 37.2 ± 3.7%; % pump inhibition at 10 μM of compound, P-gp (P-gp): 75.8 ± 1.6%
COc1cc(C(=O)C(=O)N2CCCC[C@H]2C(=O)OC(CCCc2cccnc2)CCCc2cccnc2)cc(OC)c1OC [VX-710 (biricodar)]	+	+	+		
COc1cc2c(cc1OC)CN(CCc1ccc(NC(=O)c3cc(OC)c(OC)cc3NC(=O)c3cnc4ccccc4c3)cc1)CC2 [XR9576 (tariquidar)]	+		+		
